Assay results as given in patent publication US12545681B2, “Compound used as RET kinase inhibitor and application thereof” (TYK Medicines, Inc., priority 2020, dated 2026).
Substitutions are numbered along the chain they refer to. Read-outs that look alike come from different tables or passages of the source.

Legend:
[1] = system: RET; details: cited from earlier work
[2] = biological target: T1, Ba/F3-KIF5B-RET (Homo sapiens, UniProt P07949); test: Cell anti-proliferation (CellTiter-Glo), Ba/F3-KIF5B-RET cells; format: cell-based; details: cell viability, 72 h incubation, CellTiter-Glo
T1 construct: KIF5B (fusion partner, N-terminal part of kinesin-1 heavy chain, P33176); host or cells: Ba/F3 (murine pro-B cells); the other entry of the earlier key: KIF5B (P33176, Kinesin-1 heavy chain)
T1 sequence (P07949 713-1063 limits assumed): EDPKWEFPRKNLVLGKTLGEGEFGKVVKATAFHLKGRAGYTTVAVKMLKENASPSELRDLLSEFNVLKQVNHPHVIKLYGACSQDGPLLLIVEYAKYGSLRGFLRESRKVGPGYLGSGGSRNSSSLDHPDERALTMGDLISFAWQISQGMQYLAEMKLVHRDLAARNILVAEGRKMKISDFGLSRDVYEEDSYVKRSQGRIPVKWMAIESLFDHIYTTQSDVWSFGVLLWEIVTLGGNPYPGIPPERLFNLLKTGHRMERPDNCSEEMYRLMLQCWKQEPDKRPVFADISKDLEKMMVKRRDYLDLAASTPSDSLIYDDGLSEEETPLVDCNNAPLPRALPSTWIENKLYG
Description: (§1) Ba/F3-KIF5B-RET, Ba/F3-KIF5B-RET-V804L and Ba/F3-KIF5B-RET-V804M cells were constructed by PreceDo Pharmaceuticals Co., Ltd.
(§2) Ba/F3-KIF5B-RET, Ba/F3-KIF5B-RET-V804L and Ba/F3-KIF5B-RET-V804M medium: RPMI-1640+10% FBS+1% P/S.
(§3) A 1000×solution of the compound was prepared with DMSO, the compound was diluted to 20 times to obtain the final concentration with a growth medium, and 2 μl 1000×cpd was added to 98 μl growth medium.
(§4) Cells were centrifuged and resuspended with growth medium and cell counting was performed using a cell counter. The cell suspension was diluted with growth medium to the desired concentration. 95 uL of the diluted cell suspension was taken out to a 96-well plate. 5 μL of 20×compound solution was added to the 96-well plate to a final DMSO concentration of 0.1% per well. The 96-well plate was incubated for 72 h at 37° C. with 5% CO2.
(§5) The 96-well plate was equilibrated to room temperature before the assay, 50 μl of CellTiter-Glo® Reagent was added to each well, the cells were fully lysed by shaking for 2 minutes on a shaker, incubated for 10 minutes at room temperature, and Paradigm was used to detect and record the […] readings.
(§6) Cell viability was analyzed using Graphpad 7.0 software according to the formula Cell viability (CV %)=(RLU compound−RLU blank)/(RLU control−RLU blank)*100%, and the corresponding IC50 data were calculated, in Table 1, the following names are used: <10.00 nM=A; 10.01-50.0 nM=B; >50 nM=C.

[3] = biological target: T2, Ba/F3-KIF5B-RET-V804M (Homo sapiens, UniProt P07949, V804M); test: Cell anti-proliferation (CellTiter-Glo), Ba/F3-KIF5B-RET-V804M cells; format: cell-based; details: cell viability, 72 h incubation
T2 construct: KIF5B (fusion partner, N-terminal part of kinesin-1 heavy chain, P33176); host or cells: Ba/F3 (murine pro-B cells); the other entry of the earlier key: KIF5B (P33176, Kinesin-1 heavy chain)
T2 sequence (P07949 713-1063 V804M limits assumed): T1 sequence (P07949 713-1063 limits assumed) with V92M
Description: as §1, §2, §3, §4, §5, §6

[4] = biological target: T3, Ba/F3-KIF5B-RET-V804L (Homo sapiens, UniProt P07949, V804L); test: Cell anti-proliferation (CellTiter-Glo), Ba/F3-KIF5B-RET-V804L cells; format: cell-based; details: cell viability, 72 h incubation
T3 construct: KIF5B (fusion partner, N-terminal part of kinesin-1 heavy chain, P33176); host or cells: Ba/F3 (murine pro-B cells); the other entry of the earlier key: KIF5B (P33176, Kinesin-1 heavy chain)
T3 sequence (P07949 713-1063 V804L limits assumed): T1 sequence (P07949 713-1063 limits assumed) with V92L
Description: as §1, §2, §3, §4, §5, §6

[5] = system: Ba/F3-KIF5B-RET cells; test: In vivo efficacy study, subcutaneous Ba/F3-KIF5B-RET tumor in nude mice; parameters: species or system BALB/c nude mice; details: 10 mg/kg P.O. BID x 3 weeks
Description: Cell culture: Ba/F3-KIF5B-RET cell line was cultured with 1640 medium (Biological Industries)+10%/f fetal bovine serum (BI)+1% double antibody (Penicillin Streptomycin solution, Corning, USA) at 37° C. with 5% CO2. Two passages were performed for one week. When the cell saturation was 80%-90% and the number reached the required level, the cells were collected, counted and inoculated.
Animals: BALB/c nude mice, female, 6-8 weeks of age, weighing 18-22 g. A total of 18 mice were required, provided by Beijing Vital River Laboratory Animal Technology Co., Ltd.
Tumor inoculation: 0.2 ml (2×106) Ba/F3-KIF5B-RET cells (plus stromal gel, volume ratio 1:1) were inoculated subcutaneously on the right posterior dorsum of each mouse, and group dosing was started when the average tumor volume reached about 150-200 mm^3.
Experimental index: Tumor volume and body weight were measured twice a week. Tumor volume was measured by vernier calipers with the formula TV=0.5 a×b2, where a is the long diameter of the tumor and b is the short diameter of the tumor.

SMILES | overall remission rate (ORR) ([1]; patients with medullary thyroid carcinoma) | overall remission rate (ORR) ([1]; patients with non-small cell lung cancer) | overall remission rate (ORR) ([1]; tumor patients with RET fusion and mutation) | IC50 [2] | IC50 [3] | IC50 [4] | Tumor Volume(mm^3) 0 day ([5]; 0 day) | Tumor Volume(mm^3) 2 days ([5]; 2 days) | Tumor Volume(mm^3) 5 days ([5]; 5 days) | Tumor Volume(mm^3) 9 days ([5]; 9 days) | Tumor Volume(mm^3) 12 days ([5]; 12 days) | Tumor Volume(mm^3) 16 days ([5]; 16 days) | Tumor Volume(mm^3) 19 days ([5]; 19 days) | Tumor Volume(mm^3) 22 days ([5]; 22 days)
CO[C@]1(C(=O)N[C@@H](C)c2ccc(-n3cc(F)cn3)nc2)CC[C@H](c2nc(C)cc(Nc3cc(C)[nH]n3)n2)CC1 [BLU-667] | 40% | 50% | 45% | – | – | – | – | – | – | – | – | – | – | –
CO[C@]1(C(=O)N[C@@H](C)c2ccc(-n3cc(F)cn3)nc2)CC[C@H](c2nc(Nc3cc(C)[nH]n3)c3ccn(C)c3n2)CC1 [Control Example 1, reference compound] | – | – | – | < 10 nM | < 10 nM | < 10 nM | 169.95 mm^3 | 157.73 mm^3 | 144.57 mm^3 | 185.92 mm^3 | 204.18 mm^3 | 272.83 mm^3 | 277.52 mm^3 | 292.41 mm^3
